Assay results: PMC7470033, “In vitro inhibitory effect of lysionotin on the activity of cytochrome P450 enzymes” (Pharmaceutical Biology, 2020)

Key:
Format in all cases: in vitro ADME
CYP2C8 = molecular target: T1, CYP2C8 (Homo sapiens, UniProt P10632); experiment: CYP2C8 inhibition in pooled human liver microsomes (paclitaxel 6α-hydroxylation); conditions: for inhibition model of CYP2C8: Lineweaver-Burk plots
T1 construct: Pooled HLMs were purchased from BD Biosciences Discovery Labware; tissue BD Biosciences Discovery Labware; host or cells: pooled human liver microsomes
T1 sequence (P10632 1-490): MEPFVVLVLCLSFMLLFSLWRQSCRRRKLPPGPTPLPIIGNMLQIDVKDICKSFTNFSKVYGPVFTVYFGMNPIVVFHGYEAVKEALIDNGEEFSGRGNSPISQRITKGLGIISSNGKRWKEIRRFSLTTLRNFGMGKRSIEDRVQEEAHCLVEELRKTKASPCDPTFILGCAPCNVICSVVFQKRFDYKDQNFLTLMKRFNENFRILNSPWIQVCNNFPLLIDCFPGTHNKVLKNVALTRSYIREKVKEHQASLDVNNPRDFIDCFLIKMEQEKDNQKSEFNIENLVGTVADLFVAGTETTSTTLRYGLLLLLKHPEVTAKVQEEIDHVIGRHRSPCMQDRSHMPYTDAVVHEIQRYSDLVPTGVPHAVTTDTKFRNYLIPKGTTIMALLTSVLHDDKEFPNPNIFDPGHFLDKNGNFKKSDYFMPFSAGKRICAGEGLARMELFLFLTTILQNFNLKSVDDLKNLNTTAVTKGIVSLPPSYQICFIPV
Description: (§1) In this study, lysionotin was incubated with eight CYP isoforms (i.e., 1A2, 3A4, 2A6, 2E1, 2D6, 2C9, 2C19 and 2C8) in pooled human liver microsomes to investigate the interaction between lysionotin and CYPs, which can provide direct evidence for the effect of lysionotin on the activity of CYPs. In vitro, phenacetin (CYP1A2), testosterone (CYP3A4), coumarin (CYP2A6), chlorzoxazone (CYP2E1), dextromethorphan (CYP2D6), diclofenac (CYP2C9), S-mephenytoin (CYP2C19) and paclitaxel (CYP2C8) were used as probe substrates to determine the effects of lysionotin on eight CYP enzymes. In addition, enzyme kinetic studies were conducted to determine the inhibition model of lysionotin on CYP enzymes.
(§2) All incubations were performed in triplicate, and the mean values were utilised. The typical incubation systems contained 100 mM potassium phosphate buffer (pH 7.4), NADPH generating system (1 mM NADP^+, 10 mM glucose-6-phosphate, 1 U/mL of glucose-6-phosphate dehydrogenase, and 4 mM MgCl2), the appropriate concentration of HLMs, a corresponding probe substrate and lysionotin (or positive inhibitor for different probe reactions) in a final volume of 200 μL.
The concentration of lysionotin was 100 μM, and the positive inhibitor concentrations were as follows: 10 μM furafylline for CYP1A2, 1 μM ketoconazole for CYP3A4, 10 μM tranylcypromine for CYP2A6, 50 μM clomethiazole for CYP2E1, 10 μM quinidine for CYP2D6, 10 μM sulfaphenazole for CYP2C9, 50 μM tranylcypromine for CYP2C19, 5 μM montelukast for CYP2C8. Probe substrates, positive inhibitors (except for dextromethorphan and quinidine, which were dissolved in water), and lysionotin were dissolved in methanol, with a final concentration of 1% (v/v), and 1% neat methanol was added to the incubations without inhibitor. There was a 3 min preincubation period (at 37 °C) before the reaction was initiated by adding an NADPH-generating system. The reaction was terminated by adding a 100 μL acetonitrile (10% trichloroacetic acid for CYP2A6) internal standard mix, and the solution was placed on ice. The mixture was centrifuged at 12,000 rpm for 10 min, and an aliquot (50 μL) of supernatant was transferred for HPLC analysis. The instrument used in this study was Agilent 1260 series instrument with DAD and FLD detector, and the quantitative assay for the corresponding metabolites was performed as previously reported and the detection conditions are summarised in Table 2 (He et al. [2015]; Lang et al. [2017]; Zhang et al. [2017]). […]
(§3) The enzyme kinetic parameters for the probe reaction were estimated from the best fit line, using least-squares linear regression of the inverse substrate concentration versus the inverse velocity (Lineweaver-Burk plots), and the mean values were used to calculate Vmax and Km. Inhibition data from the experiments that were conducted using multiple compound concentrations were represented by Dixon plots, and inhibition constant (Ki) values were calculated using non-linear regression according to the following equation: v=(VmaxS)/(Km(1+I/Ki+S)for competitive inhibition v=(VmaxS)/[(Km+S((1+I/Ki)] for non-competitive inhibition where I is the concentration of the compound, Ki is the inhibition constant, S is the concentration of the substrate, and Km is the substrate concentration at half the maximum velocity (Vmax) of the reaction. The mechanism of the inhibition was inspected using the Lineweaver-Burk plots and the enzyme inhibition models. […]

CYP2A6 = molecular target: T2, CYP2A6 (Homo sapiens, UniProt P11509); experiment: CYP2A6 inhibition in pooled human liver microsomes (coumarin 7-hydroxylation); conditions: 100 μM lysionotin, pooled HLMs, p > 0.05
T2 construct: Pooled HLMs were purchased from BD Biosciences Discovery Labware; tissue BD Biosciences Discovery Labware; host or cells: pooled human liver microsomes
T2 sequence (P11509 1-494): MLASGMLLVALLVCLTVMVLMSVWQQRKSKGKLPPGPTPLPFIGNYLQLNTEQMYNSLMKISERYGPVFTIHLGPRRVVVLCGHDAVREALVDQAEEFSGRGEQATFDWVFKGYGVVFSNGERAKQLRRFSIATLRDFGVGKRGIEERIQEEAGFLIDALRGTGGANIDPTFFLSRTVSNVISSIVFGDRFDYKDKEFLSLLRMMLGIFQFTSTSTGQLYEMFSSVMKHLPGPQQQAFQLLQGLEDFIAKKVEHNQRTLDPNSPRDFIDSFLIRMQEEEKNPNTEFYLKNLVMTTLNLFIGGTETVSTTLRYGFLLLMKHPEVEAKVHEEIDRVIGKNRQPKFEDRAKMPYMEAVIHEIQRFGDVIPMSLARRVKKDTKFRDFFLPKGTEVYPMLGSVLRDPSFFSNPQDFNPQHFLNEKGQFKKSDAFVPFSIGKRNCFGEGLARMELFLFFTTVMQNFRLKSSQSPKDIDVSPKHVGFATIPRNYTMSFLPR
Description: (§4) In this study, lysionotin was incubated with eight CYP isoforms (i.e., 1A2, 3A4, 2A6, 2E1, 2D6, 2C9, 2C19 and 2C8) in pooled human liver microsomes to investigate the interaction between lysionotin and CYPs, which can provide direct evidence for the effect of lysionotin on the activity of CYPs. In vitro, phenacetin (CYP1A2), testosterone (CYP3A4), coumarin (CYP2A6), chlorzoxazone (CYP2E1), dextromethorphan (CYP2D6), diclofenac (CYP2C9), S-mephenytoin (CYP2C19) and paclitaxel (CYP2C8) were used as probe substrates to determine the effects of lysionotin on eight CYP enzymes. In addition, enzyme kinetic studies were conducted to determine the inhibition model of lysionotin on CYP enzymes. […]
(§5) The concentration of lysionotin was 100 μM, and the positive inhibitor concentrations were as follows: 10 μM furafylline for CYP1A2, 1 μM ketoconazole for CYP3A4, 10 μM tranylcypromine for CYP2A6, 50 μM clomethiazole for CYP2E1, 10 μM quinidine for CYP2D6, 10 μM sulfaphenazole for CYP2C9, 50 μM tranylcypromine for CYP2C19, 5 μM montelukast for CYP2C8. […] The instrument used in this study was Agilent 1260 series instrument with DAD and FLD detector, and the quantitative assay for the corresponding metabolites was performed as previously reported and the detection conditions are summarised in Table 2 (He et al. [2015]; Lang et al. [2017]; Zhang et al. [2017]). […]

CYP2C9 = molecular target: T3, CYP2C9 (Homo sapiens, UniProt P11712); experiment: CYP2C9 inhibition in pooled human liver microsomes (diclofenac 4′-hydroxylation); conditions: 100 μM lysionotin, pooled HLMs, p > 0.05
T3 construct: Pooled HLMs were purchased from BD Biosciences Discovery Labware; tissue BD Biosciences Discovery Labware; host or cells: pooled human liver microsomes
T3 sequence (P11712 whole entry): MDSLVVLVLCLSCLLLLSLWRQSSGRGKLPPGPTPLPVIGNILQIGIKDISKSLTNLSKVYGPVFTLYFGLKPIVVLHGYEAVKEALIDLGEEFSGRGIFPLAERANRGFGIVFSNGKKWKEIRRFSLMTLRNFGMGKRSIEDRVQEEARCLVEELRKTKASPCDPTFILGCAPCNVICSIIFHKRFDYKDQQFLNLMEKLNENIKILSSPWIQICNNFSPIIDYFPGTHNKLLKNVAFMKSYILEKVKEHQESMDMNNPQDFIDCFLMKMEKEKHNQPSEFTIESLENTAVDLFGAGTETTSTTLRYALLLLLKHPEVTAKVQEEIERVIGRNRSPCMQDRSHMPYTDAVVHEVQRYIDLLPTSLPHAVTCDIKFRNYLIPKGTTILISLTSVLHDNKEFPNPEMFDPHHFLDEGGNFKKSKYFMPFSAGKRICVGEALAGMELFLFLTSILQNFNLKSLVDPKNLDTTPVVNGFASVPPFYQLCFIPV
Description: as §4, §5

CYP2E1 = molecular target: T4, CYP2E1 (Homo sapiens, UniProt P05181); experiment: CYP2E1 inhibition in pooled human liver microsomes (chlorzoxazone 6-hydroxylation); conditions: 100 μM lysionotin, pooled HLMs, p > 0.05
T4 construct: Pooled HLMs were purchased from BD Biosciences Discovery Labware; tissue BD Biosciences Discovery Labware; host or cells: pooled human liver microsomes
T4 sequence (P05181 whole entry): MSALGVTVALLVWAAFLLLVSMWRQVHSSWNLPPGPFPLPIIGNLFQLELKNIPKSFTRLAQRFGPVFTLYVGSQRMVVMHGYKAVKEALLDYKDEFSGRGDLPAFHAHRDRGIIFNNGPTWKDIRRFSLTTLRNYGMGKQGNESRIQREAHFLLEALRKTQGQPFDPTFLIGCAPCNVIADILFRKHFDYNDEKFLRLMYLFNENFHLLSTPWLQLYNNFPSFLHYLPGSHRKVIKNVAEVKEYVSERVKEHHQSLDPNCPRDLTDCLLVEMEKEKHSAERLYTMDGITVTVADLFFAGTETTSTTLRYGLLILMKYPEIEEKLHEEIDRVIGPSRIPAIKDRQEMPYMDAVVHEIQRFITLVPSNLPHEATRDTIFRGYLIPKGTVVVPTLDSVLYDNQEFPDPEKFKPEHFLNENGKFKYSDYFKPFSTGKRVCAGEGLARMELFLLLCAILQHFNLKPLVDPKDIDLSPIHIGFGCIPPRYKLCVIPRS
Description: as §4, §5

CYP1A2 = molecular target: T5, CYP1A2 (Homo sapiens, UniProt P05177); experiment: CYP1A2 inhibition in pooled human liver microsomes (phenacetin O-deethylation); conditions: 100 μM lysionotin, pooled HLMs, p > 0.05
T5 construct: Pooled HLMs were purchased from BD Biosciences Discovery Labware; tissue BD Biosciences Discovery Labware; host or cells: pooled human liver microsomes
T5 sequence (P05177 1-516): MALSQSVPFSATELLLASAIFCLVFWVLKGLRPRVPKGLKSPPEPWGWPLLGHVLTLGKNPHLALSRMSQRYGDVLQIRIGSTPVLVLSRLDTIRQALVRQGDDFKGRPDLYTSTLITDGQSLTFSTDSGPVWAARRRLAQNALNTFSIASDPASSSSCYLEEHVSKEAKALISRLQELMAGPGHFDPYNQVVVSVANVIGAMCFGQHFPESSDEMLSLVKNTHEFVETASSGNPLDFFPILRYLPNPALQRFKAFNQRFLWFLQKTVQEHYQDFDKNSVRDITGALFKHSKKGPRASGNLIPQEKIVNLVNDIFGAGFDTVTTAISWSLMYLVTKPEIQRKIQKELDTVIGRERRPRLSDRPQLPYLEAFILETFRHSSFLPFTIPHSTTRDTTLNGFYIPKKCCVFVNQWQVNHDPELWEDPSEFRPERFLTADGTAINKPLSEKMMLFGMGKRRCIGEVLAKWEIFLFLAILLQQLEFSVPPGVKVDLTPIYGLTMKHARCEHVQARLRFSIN
Description: as §4, §5

CYP2D6 = molecular target: T6, CYP2D6 (Homo sapiens, UniProt P10635); experiment: CYP2D6 inhibition in pooled human liver microsomes (dextromethorphan O-demethylation); conditions: 100 μM lysionotin, pooled HLMs, p > 0.05
T6 construct: Pooled HLMs were purchased from BD Biosciences Discovery Labware; tissue BD Biosciences Discovery Labware; host or cells: pooled human liver microsomes
T6 sequence (P10635 whole entry): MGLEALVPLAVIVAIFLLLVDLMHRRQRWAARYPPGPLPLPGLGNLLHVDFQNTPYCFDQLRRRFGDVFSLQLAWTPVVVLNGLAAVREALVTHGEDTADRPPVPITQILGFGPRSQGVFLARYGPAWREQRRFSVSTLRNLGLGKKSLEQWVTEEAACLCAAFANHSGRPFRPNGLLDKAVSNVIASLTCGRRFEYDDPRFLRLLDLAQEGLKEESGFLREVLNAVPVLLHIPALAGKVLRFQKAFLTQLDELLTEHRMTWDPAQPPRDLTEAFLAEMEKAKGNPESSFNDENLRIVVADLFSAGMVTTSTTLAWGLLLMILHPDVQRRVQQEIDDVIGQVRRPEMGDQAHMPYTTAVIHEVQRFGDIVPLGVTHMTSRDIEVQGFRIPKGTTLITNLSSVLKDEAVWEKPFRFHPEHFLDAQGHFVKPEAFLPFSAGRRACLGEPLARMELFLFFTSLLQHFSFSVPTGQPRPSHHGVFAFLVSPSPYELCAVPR
Description: as §4, §5

CYP3A4 = molecular target: T7, CYP3A4 (Homo sapiens, UniProt P08684); experiment: CYP3A4 inhibition in pooled human liver microsomes (testosterone 6β-hydroxylation)
T7 construct: Pooled HLMs were purchased from BD Biosciences Discovery Labware; tissue BD Biosciences Discovery Labware; host or cells: pooled human liver microsomes
T7 sequence (P08684 whole entry): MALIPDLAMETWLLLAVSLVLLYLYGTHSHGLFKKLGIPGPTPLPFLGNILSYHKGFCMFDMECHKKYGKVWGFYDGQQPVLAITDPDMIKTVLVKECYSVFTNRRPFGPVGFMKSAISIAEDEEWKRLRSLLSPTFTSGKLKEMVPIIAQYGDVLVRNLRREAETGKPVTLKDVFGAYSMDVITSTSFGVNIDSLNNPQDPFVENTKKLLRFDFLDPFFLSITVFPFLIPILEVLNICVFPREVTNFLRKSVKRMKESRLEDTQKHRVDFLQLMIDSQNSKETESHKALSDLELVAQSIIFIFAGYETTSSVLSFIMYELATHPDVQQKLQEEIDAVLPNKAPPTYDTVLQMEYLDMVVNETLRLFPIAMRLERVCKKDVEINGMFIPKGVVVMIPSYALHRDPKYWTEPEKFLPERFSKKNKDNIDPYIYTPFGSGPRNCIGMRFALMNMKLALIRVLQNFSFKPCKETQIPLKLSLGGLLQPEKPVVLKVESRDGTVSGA
Description: as §1, §2, §5, §3

- inhibition model of CYP2C8 (CYP2C8): competitively
- inhibition model of CYP2C8 (CYP2C8; listed as Lysionotin): competitive
- Ki (CYP2C8; competitive model, paclitaxel 5–20 μM, lysionotin 0–50 μM, pooled HLM): 14.5 µM
- IC50 (CYP2C8; pooled HLMs, paclitaxel 6α-hydroxylation): 30 µM
- effect on the activity of CYP2A6 (CYP2A6): not affected
- effect on the activity of CYP2C9 (CYP2C9): not affected
- effect on the activity of CYP2E1 (CYP2E1): not affected
- effect on the activity of CYP1A2 (CYP1A2): not affected
- effect on the activity of CYP2D6 (CYP2D6): not affected
- activity of CYP3A4 decreased by (CYP3A4; 100 μM lysionotin, pooled HLMs): 86.33%
- inhibition model of CYP3A4 (CYP3A4; Lineweaver-Burk plots): non-competitive
- Ki (CYP3A4; non-competitive model, testosterone 20–100 μM, pooled HLM): 6.83 µM
- IC50 (CYP3A4; pooled HLMs, testosterone 6β-hydroxylation): 13.8 µM
Structure (SMILES): COc1ccc(-c2cc(=O)c3c(O)c(OC)c(O)c(OC)c3o2)cc1 [lysionotin, Lysionotin]
